The nature of the first series: method code SF, from DOI: 10.1063/1.555833.
A word on the logP: it is the decadic logarithm of the partition coefficient of the neutral form, usually between octanol and water. Low readings indicate lower lipophilicity, high ones higher lipophilicity. As to `CCCCN1C(=O)c2ccc([N+](=O)[O-])cc2C1=O`, the logP was 2.26.

As to `Nc1c(-c2ccccc2)cnn1-c1ccccc1`, the logP came to 2.52. As for `COc1ccc(-c2cn[nH]c2N)cc1OC`, the logP turned out to be 0.85. On the same count and under the same terms, under `COc1ccc(-c2c(C)n[nH]c2N)cc1OC` stands 1.33. Still for that read-out and setting: under `CCc1n[nH]c(N)c1-c1ccc(OC)c(OC)c1` stands 1.37; under `Cc1cc2c(c3c1[nH]c1ccccc13)C(=O)CC(C)(C)C2`, 3.58; under `COc1ccc(-c2c(C)noc2N)cc1OC`, 1.53. On the same count and under the same terms, under `CC(=O)n1cc(C2=C(O)C(C)(C)CCC2=O)c2ccccc21` stands 2.16; under `Cc1nn(-c2ccccc2)c(N)c1-c1ccccc1`, 2.92; under `CCc1n[nH]c(N)c1-c1ccccc1`, 1.96. Molecule `Nc1[nH]nc(Cc2ccccc2)c1-c1ccccc1` had a logP of 2.39. With `O=C(NCCCCCCNC(=O)c1ccccc1O)c1ccccc1O`, the logP worked out at 2.85. In the case of `COc1ccc(-c2cnoc2N)cc1OC`, the logP is 0.48. On the same count and under the same terms, under `COc1ccc(Cc2nc3ccccc3c(=O)n2N)cc1OC` stands 1.94.

Regarding `O=C1Cc2ccccc2C(c2ccc([N+](=O)[O-])cc2)N1` (configuration not stated), the log partition coefficient (logP) came out at 2.48. On the same count and under the same terms, as for `CCc1nn(-c2ccccc2)c(N)c1-c1ccc(OC)c(OC)c1`, the figure is 2.82.

Assay in another series: not given
Turning to `O=c1[nH]c2ccccc2n1CCCN1CCN(C(c2ccccc2)c2ccccc2)CC1`, the logP was found to be 2.73.

The record behind these values is the SangsterLogP compilation.
